Test: Half life in human microsomes
Type: ADME, Microsome

half-life [min] | SMILES
30.5 | CN1C[C@H]2C[C@@H](N(Cc3cccc(OC(F)(F)F)c3)C(=O)c3cn(C)cn3)C[C@H]2C1
< 3.2 | Cn1cnc(C(=O)N(Cc2cccc(OC(F)(F)F)c2)[C@@H]2C[C@@H]3CN(CCC(F)(F)F)C[C@@H]3C2)c1
7.06 | Cn1cnc(C(=O)N(Cc2cccc(OC(F)(F)F)c2)[C@@H]2C[C@@H]3CN(CC(C)(C)O)C[C@@H]3C2)c1
10 | CCN1C[C@H]2C[C@@H](N(Cc3cccc(OC(F)(F)F)c3)C(=O)c3cn(C)cn3)C[C@H]2C1
< 3.2 | CC(F)CN1C[C@H]2C[C@@H](N(Cc3cccc(OC(F)(F)F)c3)C(=O)c3cn(C)cn3)C[C@H]2C1 (stereo partly specified)

Further lines, the compound ahead of its results:

SMILES | half-life [min]
Cn1cnc(C(=O)N(Cc2ccc(F)c(C(F)(F)F)c2)[C@H]2C[C@H]3CNC[C@H]3C2)c1 | > 120
Cn1cnc(C(=O)N(Cc2cccc(OC(F)(F)F)c2)[C@@H]2C[C@@H]3CN(CC(O)c4ccccc4)C[C@@H]3C2)c1 (stereo partly specified) | 8.19
Cn1cnc(C(=O)N(Cc2ccc(F)c(C(F)(F)F)c2)[C@@H]2C[C@H]3CNC[C@H]3C2)c1 | > 120
Cn1cnc(C(=O)N(Cc2cccc(OC(F)(F)F)c2)[C@H]2C[C@H]3CNC[C@H]3C2)c1 | 50
CCN1C[C@H]2C[C@@H](N(Cc3ccc(F)c(C(F)(F)F)c3)C(=O)c3cn(C)cn3)C[C@H]2C1 | > 120
COc1ccc(CN(C(=O)c2cn(C)cn2)[C@H]2C[C@H]3CNC[C@H]3C2)cc1OC1CCCC1 | > 120
Cn1cnc(C(=O)N(Cc2cccc(OC3CCCC3)c2)[C@H]2C[C@H]3CNC[C@H]3C2)c1 | > 120
CN1C[C@H]2C[C@@H](N(Cc3ccc(F)c(OC4CCCC4)c3)C(=O)c3cn(C)cn3)C[C@H]2C1 | 78.1
CC(C)Oc1cccc(CN(C(=O)c2cn(C)cn2)[C@H]2C[C@H]3CNC[C@H]3C2)c1 | > 120
Cn1cnc(C(=O)N(Cc2ccc(F)c(OC3CCCC3)c2)[C@H]2C[C@H]3CNC[C@H]3C2)c1 | > 111
CN1C[C@H]2C[C@@H](N(Cc3ccc(F)c(C(F)(F)F)c3)C(=O)c3cn(C)cn3)C[C@H]2C1 | > 120

From ChEMBL document CHEMBL1159083, “An octahydro-cyclopenta[c]pyrrole series of inhibitors of the type 1 glycine transporter” (Bioorg Med Chem Lett, 2010)
